Source: ChEMBL document CHEMBL3351519, “Synthetic studies on mitotic kinesin Eg5 inhibitors: synthesis and structure-activity relationships of novel 2,4,5-substituted-1,3,4-thiadiazoline derivatives” (Bioorg Med Chem Lett, 2014)

How the values were obtained:
[1] = tested on: Mus musculus; experiment: Toxicity in human A2780 cells xenografted SCID mouse assessed as mortality at 100 mg/kg, po bid for 5 days; format: organism-based; parameters: dose 100 mg/kg, route oral; conditions: in vivo, 120 h
[2] = tested on: HCT-116; experiment: Induction of mitotic accumulation in human HCT116 cells Hoechst 33342 staining based by fluorescence microscopy; format: functional
[3] = tested on: A2780; experiment: Antitumor activity against human A2780 cells xenografted in SCID mouse assessed as tumor volume ratio at 100 mg/kg, po bid for 5 days relative to untreated control; format: functional
[4] = tested on: Mus musculus; experiment: Toxicity in human A2780 cells xenografted SCID mouse assessed as induction of body weight loss at 100 mg/kg, po bid for 5 days; format: organism-based; parameters: dose 100 mg/kg, route oral; conditions: in vivo, 120 h
[5] = Growth inhibition of human HCT116 cells; format: functional; conditions: HCT-116
[6] = target: T1, Kinesin-like protein KIF11 (Homo sapiens, UniProt P52732); experiment: Inhibition of Eg5 (unknown origin)
T1 sequence (P52732 whole entry): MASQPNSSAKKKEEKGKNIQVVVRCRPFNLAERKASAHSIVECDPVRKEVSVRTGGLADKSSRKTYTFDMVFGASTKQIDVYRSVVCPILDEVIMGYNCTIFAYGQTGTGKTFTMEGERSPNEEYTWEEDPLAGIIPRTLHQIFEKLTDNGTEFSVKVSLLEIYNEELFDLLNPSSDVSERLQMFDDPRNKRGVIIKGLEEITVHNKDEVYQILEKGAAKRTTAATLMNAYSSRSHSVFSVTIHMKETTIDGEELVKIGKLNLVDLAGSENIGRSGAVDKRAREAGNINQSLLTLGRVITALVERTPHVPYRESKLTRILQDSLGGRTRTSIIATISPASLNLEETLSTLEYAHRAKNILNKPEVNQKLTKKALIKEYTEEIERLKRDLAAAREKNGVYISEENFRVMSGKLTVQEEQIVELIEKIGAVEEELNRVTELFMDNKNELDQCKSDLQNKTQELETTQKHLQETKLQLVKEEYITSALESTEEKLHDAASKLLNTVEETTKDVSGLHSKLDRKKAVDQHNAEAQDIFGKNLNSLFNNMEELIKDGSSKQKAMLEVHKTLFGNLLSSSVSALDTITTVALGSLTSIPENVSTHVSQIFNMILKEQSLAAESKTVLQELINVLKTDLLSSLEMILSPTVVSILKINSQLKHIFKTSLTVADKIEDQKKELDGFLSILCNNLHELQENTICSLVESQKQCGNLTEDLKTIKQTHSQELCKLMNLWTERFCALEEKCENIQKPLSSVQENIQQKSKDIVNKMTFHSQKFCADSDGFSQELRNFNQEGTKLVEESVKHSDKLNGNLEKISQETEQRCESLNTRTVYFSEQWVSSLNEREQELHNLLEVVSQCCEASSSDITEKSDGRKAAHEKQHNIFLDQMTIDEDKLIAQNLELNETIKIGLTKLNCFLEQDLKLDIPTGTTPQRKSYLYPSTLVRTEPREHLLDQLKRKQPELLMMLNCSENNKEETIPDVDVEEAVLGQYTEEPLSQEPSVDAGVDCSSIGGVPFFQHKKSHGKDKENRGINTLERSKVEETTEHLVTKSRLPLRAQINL

[7] = Intrinsic clearance in mouse liver microsomes; format: ADME; conditions: read-out: CLH (converted)
[8] = tested on: Mus musculus; experiment: Toxicity in human A2780 cells xenografted SCID mouse assessed as induction of body weight loss at 5 mg/kg, po bid for 5 days; format: organism-based; parameters: dose 5 mg/kg, route oral; conditions: in vivo, 120 h
[9] = tested on: A2780; experiment: Antitumor activity against human A2780 cells xenografted in SCID mouse assessed as tumor volume ratio at 0.625 mg/kg, po bid for 5 days relative to untreated control; format: functional
[10] = tested on: Mus musculus; experiment: Toxicity in human A2780 cells xenografted SCID mouse assessed as mortality at 5 mg/kg, po bid for 5 days; format: organism-based; parameters: dose 5 mg/kg, route oral; conditions: in vivo, 120 h
[11] = tested on: Mus musculus; experiment: Toxicity in human A2780 cells xenografted SCID mouse assessed as mortality at 0.625 mg/kg, po bid for 5 days; format: organism-based; parameters: dose 0.625 mg/kg, route oral; conditions: in vivo, 120 h
[12] = tested on: A2780; experiment: Antitumor activity against human A2780 cells xenografted in SCID mouse assessed as tumor volume ratio at 5 mg/kg, po bid for 5 days relative to untreated control; format: functional
[13] = tested on: Mus musculus; experiment: Toxicity in human A2780 cells xenografted SCID mouse assessed as induction of body weight loss at 0.625 mg/kg, po bid for 5 days; format: organism-based; parameters: dose 0.625 mg/kg, route oral; conditions: in vivo, 120 h
[14] = tested on: Mus musculus; experiment: Toxicity in human A2780 cells xenografted SCID mouse assessed as induction of body weight loss at 2.5 mg/kg, po bid for 5 days; format: organism-based; parameters: dose 2.5 mg/kg, route oral; conditions: in vivo, 120 h
[15] = tested on: Mus musculus; experiment: Toxicity in human A2780 cells xenografted SCID mouse assessed as mortality at 10 mg/kg, po bid for 5 days; format: organism-based; parameters: dose 10 mg/kg, route oral; conditions: in vivo, 120 h
[16] = tested on: Mus musculus; experiment: Toxicity in human A2780 cells xenografted SCID mouse assessed as induction of body weight loss at 10 mg/kg, po bid for 5 days; format: organism-based; parameters: dose 10 mg/kg, route oral; conditions: in vivo, 120 h
[17] = tested on: A2780; experiment: Antitumor activity against human A2780 cells xenografted in SCID mouse assessed as tumor volume ratio at 10 mg/kg, po bid for 5 days relative to untreated control; format: functional
[18] = Therapeutic index, ratio of MTD in human A2780 cells xenografted SCID mouse to ED50 for human A2780 cells xenografted in SCID mouse; format: cell-based; conditions: in vivo, read-out: TI
[19] = tested on: A2780; experiment: Antitumor activity against human A2780 cells xenografted in SCID mouse assessed as tumor volume ratio at 2.5 mg/kg, po bid for 5 days relative to untreated control; format: functional
[20] = tested on: Mus musculus; experiment: Toxicity in human A2780 cells xenografted SCID mouse assessed as mortality at 2.5 mg/kg, po bid for 5 days; format: organism-based; parameters: dose 2.5 mg/kg, route oral; conditions: in vivo, 120 h
[21] = Oral absorption in mouse; format: ADME, organism-based; conditions: in vivo
[22] = tested on: A2780; experiment: Antitumor activity against human A2780 cells xenografted in SCID mouse assessed as reduction in tumor volume dosed orally twice daily for 5 days relative to untreated control; format: functional, organism-based

Row | SMILES | MI20 [2] | GI50 [5] | IC50 [6] | also measured
1 | CC(=O)NC1=NN(C(C)=O)C(C)(c2ccccc2)S1 (stereo not given) | 1100 nmol/L | 1000 nM |  | Activity [1]: Non-toxic; T/C [3]: 0.18; Activity [4]: Non-toxic
2 | CC(=O)N1N=C(N)SC1(C)c1ccccc1 (stereo not given) | >10000 nmol/L |  |  | 
3 | CC(C)(C)C(=O)NC1=NN(C(=O)C(C)(C)C)C(CC#N)(c2ccccc2)S1 (stereo not given) | >10000 nmol/L |  |  | 
4 | CC(C)(C)C(=O)NC1=NN(C(=O)C(C)(C)C)C(CS(C)(=O)=O)(c2ccccc2)S1 (stereo not given) | >10000 nmol/L |  |  | 
5 | COCC1(c2ccccc2)SC(NC(=O)C(C)(C)C)=NN1C(=O)C(C)(C)C (stereo not given) | 430 nmol/L | 560 nM |  | 
6 | CC(=O)NCC1(c2ccccc2)SC(NC(=O)C(C)(C)C)=NN1C(=O)C(C)(C)C (stereo not given) | 2200 nmol/L |  |  | 
7 | CC(C)(C)C(=O)NC1=NN(C(=O)C(C)(C)C)C(CNS(C)(=O)=O)(c2ccccc2)S1 (stereo not given) | 16 nmol/L | 17 nM | 44 nM | 
8 | CC(C)(C)C(=O)NC1=NN(C(=O)C(C)(C)C)C(CCNS(C)(=O)=O)(c2ccccc2)S1 (stereo not given) | 71 nmol/L | 63 nM | 120 nM | CLint scaled [7]: 32.5 mL/min/kg
9 | CCC(=O)NC1=NN(C(=O)CC)C(C)(c2ccccc2)S1 (stereo not given) | 1700 nmol/L |  |  | 
10 | CC(C)C(=O)NC1=NN(C(=O)C(C)C)C(C)(c2ccccc2)S1 (stereo not given) | 460 nmol/L | 550 nM |  | 
11 | CC(C)CC(=O)NC1=NN(C(=O)CC(C)C)C(C)(c2ccccc2)S1 (stereo not given) | 170 nmol/L | 190 nM | 520 nM | 
12 | CC1(c2ccccc2)SC(NC(=O)c2ccccc2)=NN1C(=O)c1ccccc1 (stereo not given) | >10000 nmol/L |  |  | 
13 | CCC(=O)N1N=C(NC(=O)C(C)(C)C)SC1(CCNS(C)(=O)=O)c1ccccc1 (racemic) | 114 nmol/L |  | 111 nM | CLint scaled [7]: 14.8 mL/min/kg
14 | CC(C)C(=O)N1N=C(NC(=O)C(C)(C)C)SC1(CCNS(C)(=O)=O)c1ccccc1 (racemic) | 114 nmol/L |  | 110 nM | CLint scaled [7]: 14.8 mL/min/kg
15 | CC(C)C(=O)N1N=C(NC(=O)C(C)(C)C)SC1(CCNS(C)(=O)=O)c1ccccc1 (single isomer, unassigned; (+)) | >10000 nmol/L |  |  | 
16 | CCC(=O)N1N=C(NC(=O)C(C)(C)C)SC1(CCNS(C)(=O)=O)c1ccccc1 (single isomer, unassigned; (-)) [listing 1 of 2 here] | 55 nmol/L | 560 nM | 64 nM | Activity [8]: Non-toxic; T/C [9]: 0.5; Activity [10]: Non-toxic; Activity [11]: Non-toxic; T/C [12]: 0.08; Activity [13]: Non-toxic
17 | CC(C)C(=O)N1N=C(NC(=O)C(C)(C)C)SC1(CCNS(C)(=O)=O)c1ccccc1 (single isomer, unassigned; (-)) [listing 1 of 2 here] | 40 nmol/L | 63 nM | 48 nM | Activity [14]: Non-toxic; Activity [15]: Non-toxic; Activity [16]: Non-toxic; T/C [17]: 0.27; selectivity ratio [18]: 8; T/C [19]: 0.5; Activity [20]: Non-toxic; Fa [21]: 62%
18 | CC(C)C(=O)N1N=C(NC(=O)C(C)(C)C)SC1(CCNS(C)(=O)=O)c1ccccc1 (single isomer, unassigned; (-)) [listing 2 of 2 here] |  |  |  | TGI [22]: Dose-dependent effect
19 | CCC(=O)N1N=C(NC(=O)C(C)(C)C)SC1(CCNS(C)(=O)=O)c1ccccc1 (single isomer, unassigned; (-)) [listing 2 of 2 here] |  |  |  | TGI [22]: Dose-dependent effect
20 | CCC(=O)N1N=C(NC(=O)C(C)(C)C)SC1(CCNS(C)(=O)=O)c1ccccc1 (stereo in doubt; (+)-12a) | >10000 nmol/L |  |  | 
